The results in this text go back to US8030354B2, “Substituted biphenyl GPR40 modulators” (Amgen Inc., priority 2007, dated 2011).

For the assay, the target named is GPR40 (Homo sapiens, UniProt O14842). The experiment in a line: Cell-based aequorin assay (CHO cells stably expressing GPR40 and aequorin). Set-up: expressed in transfected cells; host or cells: CHO cells stably transfected with GPR40 and aequorin. Conditions: activation of human GPR40, CHO cells, 0.01% HSA. The method, boiled down: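 CHO cells stably co-expressing GPR40 and aequorin, loaded with coelenterazine (1 ug/mL, 2 h, room temperature) in H/HBSS with 20 mM Hepes and 0.01% fatty acid-free HSA. Serially diluted compounds added; luminescence recorded over 20 s. EC50 from dose-response of maximum relative light units.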
Sequence of GPR40 (O14842 whole entry): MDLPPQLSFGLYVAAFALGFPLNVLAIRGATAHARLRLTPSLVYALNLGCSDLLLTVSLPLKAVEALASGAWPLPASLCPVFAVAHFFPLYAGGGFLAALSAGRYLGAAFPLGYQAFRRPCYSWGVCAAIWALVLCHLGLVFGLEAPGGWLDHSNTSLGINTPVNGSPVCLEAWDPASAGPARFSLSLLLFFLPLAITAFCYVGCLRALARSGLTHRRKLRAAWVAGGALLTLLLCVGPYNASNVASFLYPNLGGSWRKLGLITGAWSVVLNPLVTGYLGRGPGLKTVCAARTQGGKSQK
With `CCCC(CC(=O)O)c1cccc(OCc2ccc(-c3cc(OC)ccc3F)c(C(C)(C)C)c2F)c1` (single isomer, unassigned) [Example 67.3, (3R)-3-(3-(((2-(1,1-Dimethylethyl)-2′,3-difluoro-5′-(methyloxy)-1,1′-biphenyl-4-yl)methyl)oxy)phenyl)hexanoic acid or (3S)-3-(3-(((2-(1,1-dimethylethyl)-2′,3-difluoro-5′-(methyloxy)-1,1′-biphenyl-4-yl)methyl)oxy)phenyl)hexanoic acid], the EC50 – broadly, the concentration giving half of the maximal effect – is 0.1 to 1 µM.

Take `CCCC(CC(=O)O)c1cccc(OCc2ccc(-c3cc(OC)ccc3F)c(/C=C/C(C)(C)C)c2)c1` (single isomer, unassigned) [Example 67.4, (3R)-3-(3-(((2-((1E)-3,3-Dimethyl-1-butenyl)-2′-fluoro-5′-(methyloxy)-1,1′-biphenyl-4-yl)methyl)oxy)phenyl)hexanoic acid or (3S)-3-(3-(((2-((1E)-3,3-dimethyl-1-butenyl)-2′-fluoro-5′-(methyloxy)-1,1′-biphenyl-4-yl)methyl)oxy)phenyl)hexanoic acid]: the EC50 lay within 0.1 to 1 µM.

In turn, `CCCC(CC(=O)O)c1cccc(OCc2ccc(-c3cc(OC)ccc3F)c(C3=CCC(C)(C)CC3)c2)c1` (single isomer, unassigned) [Example 67.5, (3R)-3-(3-(((2-(4,4-Dimethyl-1-cyclohexen-1-yl)-2′-fluoro-5′-(methyloxy)-1,1′-biphenyl-4-yl)methyl)oxy)phenyl)hexanoic acid or (3S)-3-(3-(((2-(4,4-dimethyl-1-cyclohexen-1-yl)-2′-fluoro-5′-(methyloxy)-1,1′-biphenyl-4-yl)methyl)oxy)phenyl)hexanoic acid] showed an EC50 of 0.1 to 1 µM.

In turn, `CCCC(CC(=O)O)c1cccc(OCc2ccc(-c3cc(OC)ccc3F)c(/C=C/C3CC3)c2)c1` (single isomer, unassigned) [Example 67.9, (3R)-3-(3-(((2-((E)-2-Cyclopropylethenyl)-2′-fluoro-5′-(methyloxy)-1,1′-biphenyl-4-yl)methyl)oxy)phenyl)hexanoic acid or (3S)-3-(3-(((2-((E)-2-cyclopropylethenyl)-2′-fluoro-5′-(methyloxy)-1,1′-biphenyl-4-yl)methyl)oxy)phenyl)hexanoic acid] showed an EC50 of 1 to 10 µM.

In turn, `CCCC(CC(=O)O)c1cccc(OCc2ccc(-c3cc(OC)ccc3F)c(C3CCCC3)c2)c1` (single isomer, unassigned) [Example 67.10, (3R)-3-(3-(((2-Cyclopentyl-2′-fluoro-5′-(methyloxy)-1,1′-biphenyl-4-yl)methyl)oxy)p acid or (3S)-3-(3-(((2-cyclopentyl-2′-fluoro-5′-(methyloxy)-1,1′-biphenyl-4-yl)methyl)oxy)phenyl)hexanoic acid] registered an EC50 of 0.1 to 1 µM.

The compound `CCCCOc1cc(COc2cccc(C(CCC)CC(=O)O)c2)ccc1-c1cccc(OC)c1` (single isomer, unassigned) [Example 67.13, (3R)-3-(3-(((2-(Butyloxy)-3′-(methyloxy)-1,1′-biphenyl-4-yl)methyl)oxy)phenyl)hexanoic acid or (3S)-3-(3-(((2-(butyloxy)-3′-(methyloxy)-1,1′-biphenyl-4-yl)methyl)oxy)phenyl)hexanoic acid] displayed an EC50 of 0.1 to 1 µM.

In the case of `CCC[C@H](CC(=O)O)c1cccc(OCc2ccc(-c3cc(OC)ccc3F)c(OC3CCCCO3)c2)c1` (single isomer, unassigned) [Example 67.14, (3R)-3-(3-(((2′-Fluoro-5′-(methyloxy)-2-(tetrahydro-2H-pyran-2-yloxy)-1,1′-biphenyl-4-yl)methyl)oxy)phenyl)hexanoic acid or (3S)-3-(3-(((2′-fluoro-5′-(methyloxy)-2-(tetrahydro-2H-pyran-2-yloxy)-1,1′-biphenyl-4-yl)methyl)oxy)phenyl)hexanoic acid], the EC50 was 0.1 to 1 µM.

Regarding `CCCCCCOc1cc(COc2cccc([C@H](CCC)CC(=O)O)c2)ccc1-c1cc(OC)ccc1F` (single isomer, unassigned) [Example 67.15, (3R)-3-(3-(((2′-Fluoro-2-(hexyloxy)-5′-(methyloxy)-1,1′-biphenyl-4-yl)methyl)oxy)phenyl)hexanoic acid or (3S)-3-(3-(((2′-fluoro-2-(hexyloxy)-5′-(methyloxy)-1,1′-biphenyl-4-yl)methyl)oxy)phenyl)hexanoic acid], the EC50 lay within 0.1 to 1 µM.

In turn, `CCCC(CC(=O)O)c1cccc(OCc2ccc(-c3cc(OC)ccc3F)c(OCCCC(C)C)c2)c1` (single isomer, unassigned) [Example 67.16, (3R)-3-(3-(((2′-Fluoro-5′-(methyloxy)-2-((4-methylpentyl)oxy)-1,1′-biphenyl-4-yl)methyl)oxy)phenyl)hexanoic acid or (3S)-3-(3-(((2′-fluoro-5′-(methyloxy)-2-((4-methylpentyl)oxy)-1,1′-biphenyl-4-yl)methyl)oxy)phenyl)hexanoic acid] displayed an EC50 of 0.1 to 1 µM.

With `CCCC(CC(=O)O)c1cccc(OCc2ccc(-c3cc(OC)ccc3F)c(OCC3CCCCC3)c2)c1` (single isomer, unassigned) [Example 67.17, (3R)-3-(3-(((2-((Cyclohexylmethyl)oxy)-2′-fluoro-5′-(methyloxy)-1,1′-biphenyl-4-yl)methyl)oxy)phenyl)hexanoic acid or (3S)-3-(3-(((2-((cyclohexylmethyl)oxy)-2′-fluoro-5′-(methyloxy)-1,1′-biphenyl-4-yl)methyl)oxy)phenyl)hexanoic acid], the EC50 was in the range of 0.1 to 1 µM.

As to `CCC[C@H](CC(=O)O)c1cccc(OCc2ccc(-c3ccccc3F)c(C(C)(C)C)c2)c1` (single isomer, unassigned) [Example 67.18, (3R)-3-(3-(((2-(1,1-Dimethylethyl)-2′-fluoro-1,1′-biphenyl-4-yl)methyl)oxy)phenyl)hexanoic acid or (3S)-3-(3-(((2-(1,1-dimethylethyl)-2′-fluoro-1,1′-biphenyl-4-yl)methyl)oxy)phenyl)hexanoic acid], the 50% effective concentration (EC50) lay within 1 to 10 µM.

In the case of `CCC[C@H](CC(=O)O)c1cccc(OCc2ccc(-c3ccc(OC)nc3)c(C(C)(C)C)c2)c1` (single isomer, unassigned) [Example 67.19, (3R)-3-(3-(((3-(1,1-Dimethylethyl)-4-(6-(methyloxy)-3-pyridinyl)phenyl)methyl)oxy)phenyl)hexanoic acid or (3S)-3-(3-(((3-(1,1-dimethylethyl)-4-(6-(methyloxy)-3-pyridinyl)phenyl)methyl)oxy)phenyl)hexanoic acid], the EC50 lay within 1 to 10 µM.

`CCCC(CC(=O)O)c1cccc(OCc2ccc(-c3cccc(OC)n3)cc2)c1` (single isomer, unassigned) [Example 67.22, (3R)-3-(3-(((4-(6-(Methyloxy)-2-pyridinyl)phenyl)methyl)oxy)phenyl)hexanoic acid or (3S)-3-(3-(((4-(6-(methyloxy)-2-pyridinyl)phenyl)methyl)oxy)phenyl)hexanoic acid] came in with an EC50 of 1 to 10 µM.

As to `CCC[C@H](CC(=O)O)c1cccc(OCc2ccc(-c3cc(OC)ccc3F)c(COCC)c2)c1` (single isomer, unassigned) [Example 67.23, (3R)-3-(3-(((2-((Ethyloxy)methyl)-2′-fluoro-5′-(methyloxy)-1,1′-biphenyl-4-yl)methyl)oxy)phenyl)hexanoic acid or (3S)-3-(3-(((2-((ethyloxy)methyl)-2′-fluoro-5′-(methyloxy)-1,1′-biphenyl-4-yl)methyl)oxy)phenyl)hexanoic acid], the EC50 is 1 to 10 µM.

For the compound `C=CC(C)(C)[C@H](O)c1cc(COc2cccc([C@H](CCC)CC(=O)O)c2)ccc1-c1cc(OC)ccc1F` (single isomer, unassigned) [Example 67.25, (3R)-3-(3-(((2′-Fluoro-2-((1S)-1-hydroxy-2,2-dimethyl-3-butenyl)-5′-(methyloxy)-1,1′-biphenyl-4-yl)methyl)oxy)phenyl)hexanoic acid or (3R)-3-(3-(((2′-fluoro-2-((1R)-1-hydroxy-2,2-dimethyl-3-butenyl)-5′-(methyloxy)-1,1′-biphenyl-4-yl)methyl)oxy)phenyl)hexanoic acid], the concentration for a half-maximal effect (EC50) fell in the range of 1 to 10 µM.

For the compound `CCCC(CC(=O)O)c1cccc(OCc2ccc(-c3cc(OC)ccc3F)c(C(OC)C(C)(C)CC)c2)c1` (single isomer, unassigned) [Example 67.26], the EC50 is 1 to 10 µM.

`CCC[C@H](CC(=O)O)c1cccc(OCc2ccc(-c3cc(OC)ccc3F)c(COCC=C(C)C)c2)c1` (single isomer, unassigned) [Example 67.27, (3R)-3-(3-(((2′-Fluoro-2-(((3-methyl-2-butenyl)oxy)methyl)-5′-(methyloxy)-1,1′-biphenyl-4-yl)methyl)oxy)phenyl)hexanoic acid or (3S)-3-(3-(((2′-fluoro-2-(((3-methyl-2-butenyl)oxy)methyl)-5′-(methyloxy)-1,1′-biphenyl-4-yl)methyl)oxy)phenyl)hexanoic acid] returned an EC50 of 1 to 10 µM.

With `CCCC(CC(=O)O)c1cccc(OCc2ccc(-c3cc(OC)ccc3F)c(CN3CCCC3)c2)c1` (single isomer, unassigned) [Example 67.28, (3R)-3-(3-(((2′-Fluoro-5′-(methyloxy)-2-(1-pyrrolidinylmethyl)-1,1′-biphenyl-4-yl)methyl)oxy)phenyl)hexanoic acid or (3S)-3-(3-(((2′-fluoro-5′-(methyloxy)-2-(1-pyrrolidinylmethyl)-1,1′-biphenyl-4-yl)methyl)oxy)phenyl)hexanoic acid], the EC50 lay in the range of 1 to 10 µM.

For the compound `COc1ccc(F)c(-c2ccc(COc3cccc(C(CCC(F)(F)F)CC(=O)O)c3)cc2C(C)(C)C)c1` (single isomer, unassigned) [Example 68.1, (3R)-3-(3-(((2-(1,1-Dimethylethyl)-2′-fluoro-5′-(methyloxy)-1,1′-biphenyl-4-yl)methyl)oxy)phenyl)-6,6,6-trifluorohexanoic acid or (3S)-3-(3-(((2-(1,1-dimethylethyl)-2′-fluoro-5′-(methyloxy)-1,1′-biphenyl-4-yl)methyl)oxy)phenyl)-6,6,6-trifluorohexanoic acid], the half-maximal effective concentration (EC50) was in the range of 0.1 to 1 µM.
